This is an account of results in article PMC10214526, “Semisynthetic LC3 Probes for Autophagy Pathways Reveal a Noncanonical LC3 Interacting Region Motif Crucial for the Enzymatic Activity of Human ATG3” (ACS Central Science, 2023).

Test [1] concerns ATG3. Briefly: Reaction (cross-linking) of Ubl activity-based probes with recombinant ATG3 and variants. The following applies: for Reaction with ATG3 C0: ATG3 C0 (no cysteines) 15 μM; for Reaction with ATG3 C1: ATG3 C1 (only active-site C264) 15 μM; for Reaction with ATG3 ΔLIR: ATG3 C1 ΔLIR (Δ95–111) 15 μM. Format: biochemical, human. On the procedure:
Figure 1 Modification of ATG3 with GABARAP ABPs depends on LIR^ATG3. a. Characterization of GABARAP activity-based probes, 1 and 2, obtained by hydrazide-acylation. Deconvoluted mass-spectrum (ESI) of GABARAP(ΔG116)–NHNH α-chloroacetyl 1. Expected mass 13707 Da. Deconvoluted mass-spectrum (ESI) of GABARAP(ΔG116)–NHNH methyl-fumarate 2. Expected mass 13743 Da. b. […] The reaction was allowed to proceed for 1 h and was analyzed by SDS-PAGE and Coomassie Blue staining. c. ColabFold-predicted structure of the protein-complex of ATG3 and GABARAP. Side-chain atoms are shown for the predicted LIR motif in ATG3 (90–112). d. Reaction of 2 (15 μM) with ATG3 variants C1, C0, and ΔLIR (15 μM). ATG3 C1 contains only active-site cysteine C264. ATG3 C0 contains no cysteines. ATG3 ΔLIR lacks amino acids 95–111. Reaction was allowed to proceed for 1 h and was analyzed by SDS-PAGE and Coomassie Blue staining. Full-gel images for b and d are available in the Supplementary Information.
We were intrigued by the cross-linking efficiency of 2 with ATG3 and sought to investigate the origin of this efficiency by generating a C1 variant of ATG3 that only contains the catalytic cysteine 264 and a corresponding C0 variant containing no cysteines. […] In general, the affinity of E2s for their cognate Ubls are quite low, as the thioester transfer from the E1 to the E2 enzyme is facilitated by additional interactions from the UFD domain of the E1 enzyme.[23] […]
Upon completion the solution was dialyzed against 25 mM
HEPES, 200 mM NaCl pH 7.2 at 4 °C. Cleaved intein was removed using gravity Ni-NTA purification.
The flow-through was collected and combined with resin washes. The combined fractions were dialyzed and further purified using ion exchange.
3.3. Generation of GABARAP and LC3A hydrazides from SUMO-GABARAP/LC3A-Mxe GyrA-
SUMO-GABARAP/LC3A-Mxe GyrA-His6 fusion after Ni-NTA purification was dialyzed against intein cleavage buffer (25 mM HEPES, 500 mM NaCl, 1 mM EDTA pH 7.2 at 4 °C). After dialysis hydrazine monohydrate (75 mM) and MESNa (10 mM) was added and the pH adjusted to 7.8. The solution was allowed to stand at room temperature and monitored using LC-MS analysis. Upon completion the solution was dialyzed against 25 mM HEPES, 500 mM NaCl pH 7.2 at 4 °C. SENP1 (1 wt%) was added to cleave the SUMO-tag. The cleaved intein was removed using gravity Ni-NTA purification. […]
dialyzed and further purified using cation exchange using a buffer 25 mM Tris pH 8.0 and a gradient of […] in the same buffer over 25 column volumes. The product fractions were pooled, concentrated, and stored at –80 °C until further use.
3.4. Synthesis of symmetrical anhydrides
The carboxylic acid was dissolved in CH2Cl2 (300 mM) and dicyclohexylcarbodiimide (0.5 eqiv) was added in one portion. The reaction was stirred under N2 for 18 h. The suspension was filtered and concentrated to ~10% of the initial volume. The solution was placed at 4 °C for 1 h and filtered again.
The filtrate was concentrated to obtain the symmetrical anhydride which was used without further purification. Anhydrides can be stored at –20 °C for weeks.
3.5. Reaction of modified Ubl probes with E2s
Ubl probes (15 μM) were mixed with E2s (15 μM) in PBS. The mixture was incubated at 37 °C in a water bath for 0.5-3 h. The reaction was quenched by addition of 2x Laemmli buffer and boiled at 95 °C for 5 min. Samples were resolved by SDS-PAGE (8-16%, Bio-Rad) and visualized by […]
Coomassie staining. […]

Test [2] addresses T1, LC3A (Homo sapiens, UniProt Q9H492).
T1 construct: His6-SUMO (pOPINS) (N, cleaved yes); made in house; host or cells: E. coli Rosetta-CodonPlus (DE3)-RIL
As to the kind of experiment: Fluorescence polarization binding of fluorescein-modified LIR^ATG3 peptides to LC3A. The text has this:
(§1) Figure 2 Characterization of LIR^ATG3. a. Reaction scheme outlining competition assay used for b, c, and d. b. Coomassie Blue-stained SDS-PAGE analysis for reaction of 2 with ATG3 C1 in the presence of varying concentrations of linear LIR^ATG3 peptide 5 as outlined in a. c. Coomassie Blue-stained SDS-PAGE analysis for reaction of 2 with ATG3 C1 in the presence of varying concentrations of cyclized LIR^ATG3 peptide 6 as outlined in a. d. Quantification of competition assays shown in b and c. The amount of GABARAP–ATG3 C1 complex was quantified by gel-densitometry and normalized to the reaction without peptide for each gel. […] Data are presented as average values ± s.d. e. Fluorescence polarization binding-data of fluorescein-modified LIR^ATG3 peptide binding to GABARAP. Either linear, cyclized, or truncated (103–111) LIR^ATG3 peptide was used. […] Fluorescence polarization data of fluorescein-modified LIR^ATG3 peptide binding to LC3A. […]
(§2) 3.13.Fluorescence polarization measurement
(§3) Fluorescent peptides were dissolved in DMSO and PBS. The concentration was determined by UV - absorption and extinction coefficient at 280 nm. […] Protein concentration was determined using UV-absorption and extinction coefficient at 280 nm. […]
(§4) 0.047 μM. […] Fluorescence polarization and intensity was measured on a Victor Nivo Plate Reader (Perkin Elmer). […]
(Fluorescence polarisation rises when a labelled molecule tumbles more slowly, as on binding a larger partner.)

Test [3] has as its target T2, GABARAP (Homo sapiens, UniProt O95166).
T2 construct: His6-SUMO (pOPINS) (N, cleaved yes); made in house; host or cells: E. coli Rosetta-CodonPlus (DE3)-RIL
As to the kind of experiment: Fluorescence polarization binding of fluorescein-modified LIR^ATG3 peptides to GABARAP. The following applies: response letter; truncated LIR peptide (103–111).
Text: as §1, §2, §3, §4

Test [4] deals with ATG3. Briefly: Reaction (cross-linking) of Ubl activity-based probes with recombinant ATG3 and variants. Format: biochemical, human. The following applies: probe 15 μM; ATG3 wt, C264A and ΔLIR 5 μM; SDS-PAGE (Figure S9).

Where no end group is shown, it is not given here.

T2 sequence (O95166 whole entry): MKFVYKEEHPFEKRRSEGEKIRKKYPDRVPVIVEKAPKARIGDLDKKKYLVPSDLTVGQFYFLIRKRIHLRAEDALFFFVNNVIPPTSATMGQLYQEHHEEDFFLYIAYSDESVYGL

Consider “Ub(ΔGG)–NHNH methyl fumarate [Ub(ΔGG) methyl fumarate probe, reference compound]”, for which, in test [1] (probe 15 μM, ATG3 15 μM, 1 h, SDS-PAGE, Coomassie Blue), the “Reaction with ATG3 wt” value is recorded as “did not react”.

For “truncated LIR^ATG3: fluorescein-modified truncated (103–111) LIR^ATG3 peptide, amino acids G103-Y111 including the core LIR motif (GDGGWVDTY; also: fluorescein, position not given here)”, the “fold weaker binding of truncated peptide than linear peptide” value in test [2] (GABARAP or LC3A not stated, truncated (103–111) vs linear) came to 6 fold. For the same substance, in test [2] (response letter, truncated LIR peptide lacking amino acids 104-95), the “fold weaker affinity of truncated peptide, LC3A” value was > 8 fold. Further, in test [3], the “fold weaker affinity of truncated peptide, GABARAP” value is reported as > 8 fold.

“GABARAP(ΔG116)–NHNH α-chloroacetyl [compound 1]”: the “LIR dependence of ATG3 wild-type modification” value in test [4] is “dependent on LIRATG3”. Moreover, the “LIR dependence of cross-linking with ATG3” value in test [1] (ATG3 with or without LIR) is “strictly dependent on LIR^ATG3”. Further, in test [1] (probe 1 15 μM, ATG3 C1 or C0 15 μM, 1 h (Figure S2)), the “Cross-linking with ATG3 C1 vs C0” value was “Cross-linking was only observed for ATG3 C1”.

As for “LC3A(ΔG120)–NHNH methyl fumarate [compound 4]”, in test [1] (probe 15 μM, SDS-PAGE), the “Reaction with ATG3 C0” value was “no reaction”, the “Reaction with ATG3 C1” value is “efficient reaction” and the “Reaction with ATG3 ΔLIR” value is on record as “no reaction”.

Regarding “LC3A(ΔG120)–NHNH α-chloroacetyl [compound 3]”, in test [1] (probe 15 μM, SDS-PAGE), the “Reaction with ATG3 C0” value was “no reaction”, the “Reaction with ATG3 C1” value is listed as “efficient reaction” and the “Reaction with ATG3 ΔLIR” value is “no reaction”.
